In US10533010B2, “Substituted indole Mcl-1 inhibitors” (Vanderbilt University, priority 2014, dated 2020):
Like-named read-outs stand apart in the source and are kept apart here.

Molecular target: recombinant Mcl-1 (residues 172-327) (Homo sapiens (Human), UniProt Q07820)
Test: Fluorescence polarization anisotropy competition assay (FITC-Bak or FITC-Bim BH3 peptide) with Mcl-1
Format: binding
Conditions: Table 2, FITC-Bak or FITC-Bim peptide competition, Ki converted from IC50, read-out: Ki for Inhibition of Mcl-1

Chain of recombinant Mcl-1 (residues 172-327) (Q07820 172-327): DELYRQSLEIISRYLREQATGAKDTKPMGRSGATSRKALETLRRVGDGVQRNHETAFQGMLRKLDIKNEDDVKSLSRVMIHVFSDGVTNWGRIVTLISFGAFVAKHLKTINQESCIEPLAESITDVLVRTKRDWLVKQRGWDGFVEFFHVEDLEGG

SMILES | Ki (Ki bins given in nM) | Ki (Ki bins given in μM)
Cc1cc(OCCCc2c(C(=O)NCc3cccc(C(=O)NCc4ccccc4)c3)[nH]c3c(-c4c(C)n[nH]c4C)cccc23)cc(C)c1Cl [I-64, N-(3-(benzylcarbamoyl)benzyl)-3-(3-(4-chloro-3,5-dimethylphenoxy)propyl)-7-(3,5-dimethyl-1H-pyrazol-4-yl)-1H-indole-2-carboxamide] |  | 10000 to 50000 nM
COC(=O)c1cccc(CNC(=O)c2[nH]c3c(-c4c(C)n[nH]c4C)cccc3c2CCCOc2cc(C)c(Cl)c(C)c2)c1 [I-25, methyl 3-((3-(3-(4-chloro-3,5-dimethylphenoxy)propyl)-7-(3,5-dimethyl-1H-pyrazol-4-yl)-1H-indole-2-carboxamido)methyl)benzoate] | 301 to 500 nM | 
Cc1nn(C)c(C)c1-c1cccc2c(CCCOc3cccc4ccccc34)c(C(=O)N(C)c3cccc(C(=O)O)c3)[nH]c12 [I-195, 3-(N-methyl-3-(3-(naphthalen-1-yloxy)propyl)-7-(1,3,5-trimethyl-1H-pyrazol-4-yl)-1H-indole-2-carboxamido)benzoic acid] | < 50 nM | 
Cc1cc(OCCCc2c3n(c4c(-c5c(C)nn(C)c5C)c(Cl)ccc24)CCCN(c2cccc(OC(F)(F)F)c2)C3=O)cc(C)c1Cl [I-101, 8-chloro-11-(3-(4-chloro-3,5-dimethylphenoxy)propyl)-2-(3-(trifluoromethoxy)phenyl)-7-(1,3,5-trimethyl-1H-pyrazol-4-yl)-2,3,4,5-tetrahydro-1H-[1,4]diazepino[1,2-a]indol-1-one] | 301 to 500 nM | 
Cc1cc(OCCCc2c(C(=O)NCCC(=O)NS(=O)(=O)c3ccccc3[N+](=O)[O-])[nH]c3ccccc23)cc(C)c1Cl [I-20, 3-(3-(4-chloro-3,5-dimethylphenoxy)propyl)-N-(3-((2-nitrophenyl)sulfonamido)-3-oxopropyl)-1H-indole-2-carboxamide] | 101 to 299 nM | 
Cc1cc(OCCCc2c3n(c4c(-c5c(C)nn(C)c5C)c(Cl)ccc24)C[C@@H](C)N(Cc2cccc(C(=O)O)c2)C3=O)cc(C)c1Cl [I-121, (R)-3-((7-chloro-10-(3-(4-chloro-3,5-dimethylphenoxy)propyl)-3-methyl-1-oxo-6-(1,3,5-trimethyl-1H-pyrazol-4-yl)-3,4-dihydropyrazino[1,2-a]indol-2(1H)-yl)methyl)benzoic acid] | < 50 nM | 

Further lines, with some results ahead:

Ki (Ki bins given in nM) | SMILES | Ki (Ki bins given in μM)
< 50 nM | Cc1cc(OCCCc2c3n(c4c(-c5c(C)nn(C)c5C)c(Cl)ccc24)CCCN(c2cc(CO)cc(C(=O)O)c2)C3=O)cc(C)c1Cl [I-224, 3-(8-chloro-11-(3-(4-chloro-3,5-dimethylphenoxy)propyl)-1-oxo-7-(1,3,5-trimethyl-1H-pyrazol-4-yl)-4,5-dihydro-1H-[1,4]diazepino[1,2-a]indol-2(3H)-yl)-5-(hydroxymethyl)benzoic acid] | 
< 50 nM | Cc1cc(OCCCc2c(C(=O)N3CCN(c4ccc(C(=O)O)cc4)CC3)[nH]c3c(-c4c(C)nn(C)c4C)c(Cl)ccc23)cc(C)c1Cl [I-335, 4-(4-(6-chloro-3-(3-(4-chloro-3,5-dimethylphenoxy)propyl)-7-(1,3,5-trimethyl-1H-pyrazol-4-yl)-1H-indole-2-carbonyl)piperazin-1-yl)benzoic acid] | 
< 50 nM | Cc1cc(C(=O)O)ccc1N1CCCn2c(c(CCCOc3cc(C)c(Cl)c(C)c3)c3ccc(Cl)c(-c4c(C)nn(C)c4C)c32)C1=O [I-97, 4-(8-chloro-11-(3-(4-chloro-3,5-dimethylphenoxy)propyl)-1-oxo-7-(1,3,5-trimethyl-1H-pyrazol-4-yl)-4,5-dihydro-1H-[1,4]diazepino[1,2-a]indol-2(3H)-yl)-3-methylbenzoic acid] | 
< 50 nM | Cc1cc(OCCCc2c3n(c4c(-c5c(C)nn(C)c5C)c(Cl)ccc24)CCCN(c2cc(C(=O)O)cc4[nH]ccc24)C3=O)cc(C)c1Cl [I-252, 4-(8-chloro-11-(3-(4-chloro-3,5-dimethylphenoxy)propyl)-1-oxo-7-(1,3,5-trimethyl-1H-pyrazol-4-yl)-4,5-dihydro-1H-[1,4]diazepino[1,2-a]indol-2(3H)-yl)-1H-indole-6-carboxylic acid] | 
